Publication PMC3753754, “Andrographis paniculata Extract and Andrographolide Modulate the Hepatic Drug Metabolism System and Plasma Tolbutamide Concentrations in Rats” (Evidence-based Complementary and Alternative Medicine : eCAM, 2013)
Marks after values point to notes of the source that are not given here.

What was measured:
Type in all cases: in vivo
[1] = system: CYP1A2; experiment: Methoxyresorufin O-demethylation in liver microsomes of treated rats; details: rat liver microsomes; oral 2 g/kg APE or 50 mg/kg AND daily for 5 days
Procedure: (§1) Liver was homogenized (1 : 4, w/v) in an ice-cold potassium phosphate buffer (pH 7.4) containing 7.4 mM K2HPO4, 2.6 mM KH2PO4, 1.15% KCl, and 1 mM phenylmethylsulfonyl fluoride (PMSF). Tissue homogenates were centrifuged at 10,000 ×g for 30 min at 4°C. The resulting supernatant was then centrifuged at 105,000 ×g for 1 h at 4°C. The microsomes thus obtained were washed several times to get rid of possible tolbutamide contamination and this can avoid tolbutamide interference of CYP activity, and the microsomes were then suspended in potassium phosphate buffer (pH 7.7) containing 7.5 mM K2HPO4, 14.5 mM KH2PO4, and 1 mM EDTA. […] Metabolites of each CYP enzyme reaction were determined by LC/MS as reported previously. The contents of total CYP and cytochrome b5 were quantified by the method of Omura and Sato [29]. Enzyme activity is expressed as picomoles of metabolite formed per minute per milligram of protein. The NADPH-CYP reductase activity was measured as described by Phillips and Langdon with the use of cytochrome c as the substrate. The microsomal protein concentration was determined by using a Coomassie Plus protein assay kit (Pierce, Rockford, IL, USA).

[2] = system: CYP2C; experiment: Diclofenac 4-hydroxylation in liver microsomes of treated rats; details: rat liver microsomes; oral 2 g/kg APE or 50 mg/kg AND daily for 5 days
Procedure: as §1

[3] = system: CYP3A; experiment: Midazolam 1-hydroxylation in liver microsomes of treated rats; details: rat liver microsomes; oral 2 g/kg APE or 50 mg/kg AND daily for 5 days
Procedure: as §1

[4] = system: CYP2E1; experiment: Immunoblot and RT-PCR of hepatic CYP2E1 in treated rats; details: rat liver; APE or andrographolide for 5 days
Procedure: Aliquots of microsomal protein (10 μg) were electrophoresed in an SDS-polyacrylamide gel, and proteins were then transferred to polyvinylidene fluoride membranes. After blocking, membranes were hybridized with antibodies to CYP1A1, CYP1A2, CYP2C6, CYP2C11, CYP2D1, CYP2E1, CYP3A1, and CYP3A2.
Total RNA in liver samples was extracted by using the Trizol reagent (1 : 20, w/v). […] The sequences for the PCR primers were as follows: for CYP1A1 (forward: 5′-[…]-3′; reverse: 5′-[…]-3′), CYP1A2 (forward: 5′-[…]-3′; reverse: 5′-[…]-3′), CYP2C6 (forward: 5′-[…]-3′; reverse: 5′-[…]-3′), CYP2C11 (forward: 5′-[…]-3′; reverse: 5′-[…]-3′), CYP2D1 (forward: 5′-[…]-3′; reverse: 5′-[…]-3′), CYP2E1 (forward: 5′-[…]-3′; reverse: 5′-[…]-3′), CYP3A1 (forward: 5′-[…]-3′; reverse: 5′-[…]-3′), CYP3A2 (forward: 5′-[…]-3′; reverse: 5′-[…]-3′), and P-glycoprotein (forward: 5′-[…]-3′; reverse: 5′-[…]-3′). The PCR for CYP1A1 was performed as follows: 5 min at 95°C and then 35 cycles of 30 s at 94°C, 30 s at 54°C, and 60 s at 72°C. […] The PCR amplicons were then electrophoresed in 1% agarose gels containing 40 mM Tris/20 mM glacial acetic acid/2 mM EDTA buffer, and the relative densities of the PCR products were quantitated by use of Image Gauge software (Fujifilm, Tokyo, Japan). […]

[5] = system: P-glycoprotein; experiment: Immunoblot and RT-PCR of hepatic P-glycoprotein in treated rats; details: rat liver; APE or andrographolide for 5 days
Procedure: For P-glycoprotein expression, liver tissue was homogenized with phosphate-buffered saline containing 0.2% Triton X-100, 5 mM EDTA, and 1 mM PMSF. The homogenates were then centrifuged at 10,000 ×g for 30 min at 4°C. Proteins in the resulting supernatants were electrophoretically separated and were immunoblotted with P-glycoprotein antibody. The immunoreactive bands were detected by using an enhanced chemiluminescence plus Western blotting detection reagent (Amersham Biosciences, Boston, MA, USA).
Total RNA in liver samples was extracted by using the Trizol reagent (1 : 20, w/v). […] The sequences for the PCR primers were as follows: for CYP1A1 (forward: 5′-[…]-3′; reverse: 5′-[…]-3′), CYP1A2 (forward: 5′-[…]-3′; reverse: 5′-[…]-3′), CYP2C6 (forward: 5′-[…]-3′; reverse: 5′-[…]-3′), CYP2C11 (forward: 5′-[…]-3′; reverse: 5′-[…]-3′), CYP2D1 (forward: 5′-[…]-3′; reverse: 5′-[…]-3′), CYP2E1 (forward: 5′-[…]-3′; reverse: 5′-[…]-3′), CYP3A1 (forward: 5′-[…]-3′; reverse: 5′-[…]-3′), CYP3A2 (forward: 5′-[…]-3′; reverse: 5′-[…]-3′), and P-glycoprotein (forward: 5′-[…]-3′; reverse: 5′-[…]-3′). […] The PCR amplicons were then electrophoresed in 1% agarose gels containing 40 mM Tris/20 mM glacial acetic acid/2 mM EDTA buffer, and the relative densities of the PCR products were quantitated by use of Image Gauge software (Fujifilm, Tokyo, Japan). […]

[6] = biological target: T1, aryl hydrocarbon receptor (AhR) (Rattus norvegicus, UniProt P41738); experiment: EMSA of liver nuclear protein binding to XRE consensus sequence; details: APE or andrographolide for 5 days
T1 construct: from tissue; host or cells: crude liver nuclear extract of treated Sprague-Dawley rats
T1 sequence (P41738 10-853): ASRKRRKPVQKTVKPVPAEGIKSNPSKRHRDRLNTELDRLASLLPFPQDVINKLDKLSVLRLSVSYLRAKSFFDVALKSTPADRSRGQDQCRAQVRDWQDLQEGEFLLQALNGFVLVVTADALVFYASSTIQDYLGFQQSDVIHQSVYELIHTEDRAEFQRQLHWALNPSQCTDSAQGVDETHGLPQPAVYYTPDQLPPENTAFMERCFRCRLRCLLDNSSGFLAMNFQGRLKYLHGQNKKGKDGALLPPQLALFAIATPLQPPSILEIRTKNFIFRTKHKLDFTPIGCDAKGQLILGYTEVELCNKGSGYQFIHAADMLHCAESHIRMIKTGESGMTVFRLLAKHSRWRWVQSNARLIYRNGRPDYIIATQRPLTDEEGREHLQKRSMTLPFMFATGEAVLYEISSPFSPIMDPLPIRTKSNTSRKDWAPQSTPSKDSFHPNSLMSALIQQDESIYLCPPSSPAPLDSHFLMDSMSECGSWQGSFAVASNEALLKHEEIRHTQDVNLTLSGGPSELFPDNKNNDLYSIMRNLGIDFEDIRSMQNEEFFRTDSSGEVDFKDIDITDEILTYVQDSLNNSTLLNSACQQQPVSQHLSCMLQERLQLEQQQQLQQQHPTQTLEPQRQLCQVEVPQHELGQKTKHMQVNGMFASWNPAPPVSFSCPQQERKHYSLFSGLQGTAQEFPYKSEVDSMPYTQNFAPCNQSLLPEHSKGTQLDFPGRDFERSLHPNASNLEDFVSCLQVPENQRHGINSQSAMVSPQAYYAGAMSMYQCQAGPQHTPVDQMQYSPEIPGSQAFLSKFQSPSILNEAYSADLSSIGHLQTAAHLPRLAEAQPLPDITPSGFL
T1 sequence (P41739 whole entry partner): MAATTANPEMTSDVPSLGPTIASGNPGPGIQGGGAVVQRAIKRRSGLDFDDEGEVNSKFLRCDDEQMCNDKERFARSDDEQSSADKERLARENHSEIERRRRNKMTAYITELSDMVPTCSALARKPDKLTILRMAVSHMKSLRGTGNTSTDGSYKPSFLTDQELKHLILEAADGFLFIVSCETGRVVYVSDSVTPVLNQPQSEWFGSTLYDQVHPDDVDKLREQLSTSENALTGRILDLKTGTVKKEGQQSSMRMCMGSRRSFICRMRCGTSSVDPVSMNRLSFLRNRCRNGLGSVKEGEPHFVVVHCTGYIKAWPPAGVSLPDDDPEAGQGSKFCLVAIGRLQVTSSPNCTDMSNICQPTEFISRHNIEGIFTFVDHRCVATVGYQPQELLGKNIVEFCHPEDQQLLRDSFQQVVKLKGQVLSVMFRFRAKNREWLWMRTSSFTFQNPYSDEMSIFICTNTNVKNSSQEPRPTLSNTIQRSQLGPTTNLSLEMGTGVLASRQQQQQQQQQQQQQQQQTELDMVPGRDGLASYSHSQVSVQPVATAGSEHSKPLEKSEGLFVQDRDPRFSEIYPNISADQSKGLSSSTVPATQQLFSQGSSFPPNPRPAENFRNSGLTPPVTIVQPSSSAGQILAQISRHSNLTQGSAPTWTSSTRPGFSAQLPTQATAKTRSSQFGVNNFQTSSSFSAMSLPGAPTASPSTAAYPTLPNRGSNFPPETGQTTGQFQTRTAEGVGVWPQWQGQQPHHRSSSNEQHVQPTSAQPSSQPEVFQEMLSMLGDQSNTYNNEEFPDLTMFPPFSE
Procedure: Nuclear proteins of liver tissues were extracted as described by Tian et al. with some modifications. Briefly, 0.1 g of liver was homogenized (1 : 9, w/v) with 0.9 mL of ice-cold 10 mM HEPES buffer (pH 7.9) containing 10 mM KCl, 1 mM MgCl2, 0.1 mM EDTA, 0.5 mM dithiothreitol, 0.5 mM PMSF, 4 μg/mL leupeptin, and 20 μg/mL aprotinin. The homogenates were placed in an ice bath for 15 min and then centrifuged at 600 ×g for 10 min. Then, 100 μL of 10% Nonidet P-40 was added to the supernatant, and the samples were allowed to sit in an ice bath for 10 min. The supernatant was centrifuged at 5,000 ×g for 5 min. The pellet, containing crude nuclei, was resuspended in 100 μL of hypertonic buffer containing 10 mM HEPES, 400 mM KCl, 1 mM MgCl2, 0.1 mM EDTA, 0.5 mM dithiothreitol, 4 μg/mL leupeptin, 20 μg/mL aprotinin, 25% glycerol, and 0.5 mM PMSF at 4°C for 45 min. Nuclear proteins were then collected by centrifugation at 12,000 ×g for 15 min.
EMSA was performed according to the method reported previously. The LightShift Chemiluminescent EMSA Kit (Pierce, Rockford, IL) and synthetic biotin-labeled double-stranded consensus oligonucleotides of DR4 (5′-[…]-3′) and xenobiotic response element (XRE) (forward: 5′-[…]-3′) were used to measure pregnane X receptor (PXR) and aryl hydrocarbon receptor (AhR) nuclear protein-DNA-binding activity. […]

C=C1CC[C@@H]2[C@](C)(CO)[C@H](O)CC[C@@]2(C)[C@@H]1C/C=C1/C(=O)OC[C@H]1O [andrographolide, Andrographolide]
Methoxyresorufin O-demethylase (1A2) [1]: 25.6 ± 7.2^b pmol/min/mg protein | Diclofenac 4-hydroxylase (2C) [2]: 43.8 ± 10.5^b pmol/min/mg protein | Midazolam 1-hydroxylase (3A) [3]: 320 ± 84^ab pmol/min/mg protein | CYP2E1 protein or mRNA levels compared with controls [4]: no changes | Protein and mRNA levels of membrane transporter P-glycoprotein [5]: only a minor effect | Binding activity of the XRE consensus sequence to nuclear protein AhR [6]: enhanced
